This note sets out measurements from PMC5931996 (Scientific Reports, 2018).

Experiment [1] relates to MK-801-treated rats. As to the kind of experiment: Morris water maze test, acute administration, MK-801-treated rats. As to conditions: MK-801 0.2 mg/kg i.p., mean ± S.E.M. It counts as in vivo, SD rats. On the procedure: SD rats (200–250 g, 8 animals/ group) were trained continuously until all rats found the platform within 30 sec, and the training time depended on the training results. […]. Then, all animals were intraperitoneal injections of 0.9% saline or MK-801 (0.2 mg/kg, i.p.) 30 minutes before the test. The test was started and the escape latency of rats was measured during the test in which platform was not withdrawn. A trial was deemed complete as soon as the rat had located platform or when 60 s had elapsed, whichever occurred first. The swimming activity of each rat was monitored by TopScan monitoring system. At the end of each trial, the maze was cleaned. The maze was rotated by clockwise after each training day to avoid potential intramaze cues (odour trails, etc.)[38].

The target of experiment [2] is human 5-HT2A receptor (Homo sapiens, UniProt P28223). Put plainly: Radioligand binding assay, 5-HT2A receptor. As to conditions: radioligand displacement, transfected HEK-293 cells; read-out: Receptor binding affinity (Ki), 5-HT2A. On the technique in general: In a radioligand displacement assay an active substance lowers the binding of a labelled ligand.
The target in experiment [3] is T1, human α1A receptor (Homo sapiens, UniProt P35348).
T1 construct: expressed in transfected cells; host or cells: HEK-293
T1 sequence (P35348 1-466): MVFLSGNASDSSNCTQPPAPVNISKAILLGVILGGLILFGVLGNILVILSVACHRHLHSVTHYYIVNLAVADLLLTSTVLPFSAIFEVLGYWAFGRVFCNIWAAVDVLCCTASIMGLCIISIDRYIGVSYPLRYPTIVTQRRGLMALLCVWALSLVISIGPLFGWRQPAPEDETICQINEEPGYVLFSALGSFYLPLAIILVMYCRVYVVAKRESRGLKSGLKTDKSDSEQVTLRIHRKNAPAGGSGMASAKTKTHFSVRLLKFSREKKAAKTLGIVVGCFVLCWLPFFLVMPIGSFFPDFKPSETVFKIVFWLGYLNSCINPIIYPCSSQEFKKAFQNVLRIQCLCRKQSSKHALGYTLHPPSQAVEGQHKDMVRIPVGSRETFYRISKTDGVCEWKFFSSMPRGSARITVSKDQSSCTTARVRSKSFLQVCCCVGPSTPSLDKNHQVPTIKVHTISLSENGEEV
As to the kind of experiment: Radioligand binding assay, α1A receptor. As to conditions: radioligand displacement, transfected HEK-293 cells; read-out: Receptor binding affinity (Ki), α1A. On the procedure: The affinity of compounds for the human dopamine D2, D3, D4, 5-HT2A, 5-HT2B, 5-HT2C, 5-HT6, 5-HT7, H1, α1A, and α1B receptors in transfected HEK-293 cells was determined using a radioligand binding assay. Cell membrane homogenates were incubated in the absence or presence of the test compound in a buffer. Nonspecific binding was measured in the presence of the standard reference compound. Following incubation, samples were rapidly filtered under a vacuum through glass fibre filters (GF/B, Packard) presoaked with 0.3% PEI and rinsed several times with ice-cold 50 mM Tris-HCl using a 96-sample cell harvester (Unifilter, Packard). Filters were dried and then radioactivity was counted in a scintillation counter (Topcount, Packard) using a scintillation cocktail (Microscint 0, Packard). The results are expressed as percent inhibition of the specific binding of the radioligand in the control. The standard reference compound was tested in each experiment at several concentrations to obtain a competition curve from which its Ki was calculated.

SMILES strings stand for the structures.

human 5-HT2A receptor, sequence (P28223 whole entry): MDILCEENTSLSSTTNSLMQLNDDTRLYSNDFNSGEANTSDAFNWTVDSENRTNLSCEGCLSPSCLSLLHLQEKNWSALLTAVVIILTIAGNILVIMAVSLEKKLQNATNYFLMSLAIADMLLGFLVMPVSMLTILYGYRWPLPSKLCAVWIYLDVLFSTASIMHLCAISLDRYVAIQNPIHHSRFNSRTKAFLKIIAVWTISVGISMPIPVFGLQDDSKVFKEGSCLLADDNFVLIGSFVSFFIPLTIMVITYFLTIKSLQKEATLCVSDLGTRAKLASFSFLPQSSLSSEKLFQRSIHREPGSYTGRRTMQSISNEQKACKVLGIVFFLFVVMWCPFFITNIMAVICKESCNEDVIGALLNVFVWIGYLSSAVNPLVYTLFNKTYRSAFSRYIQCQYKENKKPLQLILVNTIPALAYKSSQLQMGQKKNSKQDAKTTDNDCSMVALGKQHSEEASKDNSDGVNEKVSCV

What is called Ki is a measure of affinity in units of concentration, obtained from inhibition or displacement. For `O=C1COc2ccc(OCCCCN3CCN(c4cccc(Cl)c4Cl)CC3)cc2N1` [PCC0104005], the escape latency in experiment [1] (3.0 mg/kg oral 1 h before test) turned out to be 18.35 ± 2.76 s; in experiment [1] (6.0 mg/kg oral 1 h before test) it was 17.45 ± 1.78 s; in experiment [1] ([…] oral 1 h before test), 20.60 ± 1.30 s. The Ki in experiment [2] turned out to be 5.1 nM; in experiment [3] it was 8.3 nM.
